Here are results for 17 compounds from patent US10577365B2, “Derivatives of quinoline as inhibitors of DYRK1A and/or DYRK1B kinases” (Felicitex Therapeutics, Inc., priority 2016, dated 2020).

Counter-ions that a name gives are not always drawn.

One assay concerns the target T1, DYRK1A (Homo sapiens, UniProt Q13627).
T1 construct: purchased Carna Bioscence (Carna Biosciences) 04-130
In words: DYRK1A in vitro kinase assay (ADP-Glo). It counts as biochemical. Conditions: ATP 70 μM (Km), substrate 3 μM, enzyme 2 nM or 0.7 nM, 30 min, rt. The method, then: The compounds of the present invention were tested for their inhibitory activity against DYRK1A and DYRK1B kinases once or several times. When tested more than once, the data are reported herein as average value, wherein the average value, also referred to as the mean value, represents the sum of obtained values divided by the number of times tested.
DYRK-inhibitory activity of the compounds of the present invention was tested using the ADP-Glo™ assay as described in the following paragraphs. The procedure for determining the IC50 values with the ADP-Glo™ assay in in vitro kinase assays consists of two parts:
1. Kinase reaction performed under optimized conditions;
2. Detection of ADP as a product of the reaction using ADP-Glo™ system (Promega).
The tested compounds indicated in Table 5 below were dissolved in DMSO, then transferred to the V-bottom PP plate to perform nine serial dilutions (in order to obtain dose-response curves) in 25% DMSO, as indicated in Table 5 below.
The optimized conditions for performing DYRK1A in vitro kinase assay were as follows:
For compound testing, the following protocol was used: two mixes were prepared on ice, Mix 1 containing substrate, ATP and reaction buffer and Mix 2 containing reaction buffer and the kinase. 15 μL per well of Mix 1 was transferred to wells of a 96-well plate. Next, 2.5 μL of the pre-diluted compound to be tested was added to Mix 1, followed by the addition of 12.5 μL of Mix 2. Total reaction volume was 30 μL per well. The experiment was performed in duplicate for each data point being examined. Dose response curve for the positive control was carried out on each assay plate by adding the reference inhibitory compound staurosporine. For each test, three controls were also included: (i) 30 μL of the reaction mixture containing: reaction buffer, ATP, kinase, DMSO without substrate (quasi-positive control); (ii) 30 μL of the reaction mixture containing reaction buffer, substrate, ATP, DMSO without kinase (background control); (iii) 30 μL of the reaction mixture containing reaction buffer, substrate, kinase, ATP, DMSO (vehicle control). Final concentration of DMSO in the reaction was 2%. To detect the ADP amount produced during the kinase reaction, the commercially available kit ADP-Glo™ Kinase Assay (Promega, cat. No # V9103) was used. The protocol used for the detection was based on the Technical Bulletin of the ADP-Glo™ Kinase Assay (Promega) and was adapted to 96-well plate containing 30 μL reaction mixture as explained below.
30 μL of ADP-Glo™ Reagent was added to each well of a 96 well plate containing 30 μL of reaction mixture to terminate the kinase reaction and deplete the remaining ATP. The plate was incubated for 60 minutes on a shaker at rt. 60 μL of Kinase Detection Solution was then added to each well of 96-well plate containing 60 μL of the solution to convert ADP to ATP and to allow the newly synthesized ATP to be measured using a luciferase/luciferin reaction (ratio of kinase reaction volume to ADP Glo™ Reagent volume to Kinase Detection Solution volume was maintained at 1:1:2). The plate was incubated for 40 minutes on a shaker at rt, protected from light. Luminescence was measured in the plate reader, wherein the luminescent signal is proportional to the ADP concentration produced and thus correlates with kinase activity.
After data normalization to controls (complete reaction mix and no-substrate control) and transforming X values (test compound concentrations) using: X=log(X), IC50 values were determined, using the GraphPad Prism 6.0 [log(agonist) vs. normalized response—Variable slope].
(In general: In ADP-Glo the light output rises with the ADP produced.)

A further assay concerns the target T2, DYRK1B (Homo sapiens, UniProt Q9Y463).
T2 construct: purchased Carna Bioscence (Carna Biosciences) 04-131
Put plainly: DYRK1B in vitro kinase assay (ADP-Glo). It counts as biochemical. The note with it: ADP-Glo assay, ATP 15 μM (Km), substrate 7 μM, enzyme 1 nM or 0.3 nM, 1 h, rt; read-out: DYRK1B IC50. The method, then: The compounds of the present invention were tested for their inhibitory activity against DYRK1A and DYRK1B kinases once or several times. When tested more than once, the data are reported herein as average value, wherein the average value, also referred to as the mean value, represents the sum of obtained values divided by the number of times tested. DYRK-inhibitory activity of the compounds of the present invention was tested using the ADP-Glo™ assay as described in the following paragraphs. The procedure for determining the IC50 values with the ADP-Glo™ assay in in vitro kinase assays consists of two parts: […] Kinase reaction performed under optimized conditions; 2. Detection of ADP as a product of the reaction using ADP-Glo™ system (Promega). The tested compounds indicated in Table 5 below were dissolved in DMSO, then transferred to the V-bottom PP plate to perform nine serial dilutions (in order to obtain dose-response curves) in 25% DMSO, as indicated in Table 5 below. The optimized conditions for performing DYRK1B in vitro kinase assay were as follows: [table] For compound testing, the following protocol was used: two mixes were prepared on ice, Mix 1 containing substrate, ATP and reaction buffer and Mix 2 containing reaction buffer and the kinase. 15 μL per well of Mix 1 was transferred to wells of a 96-well plate. […] Total reaction volume was 30 μL per well. The experiment was performed in duplicate for each data point being examined. Dose response curve for the positive control was carried out on each assay plate by adding the reference inhibitory compound staurosporine. For each test, three controls were also included: (i) 30 μL of the reaction mixture containing: reaction buffer, ATP, kinase, DMSO without substrate (quasi-positive control); (ii) 30 μL of the reaction mixture containing reaction buffer, substrate, ATP, DMSO without kinase (background control); (iii) 30 μL of the reaction mixture containing reaction buffer, substrate, kinase, ATP, DMSO (vehicle control). Final concentration of DMSO in the reaction was 2%. To detect the ADP amount produced during the kinase reaction, the commercially available kit ADP-Glo™ Kinase Assay (Promega, cat. No # V9103) was used. The protocol used for the detection was based on the Technical Bulletin of the ADP-Glo™ Kinase Assay (Promega) and was adapted to 96-well plate containing 30 μL reaction mixture as explained below. 30 μL of ADP-Glo™ Reagent was added to each well of a 96 well plate containing 30 μL of reaction mixture to terminate the kinase reaction and deplete the remaining ATP. The plate was incubated for 60 minutes on a shaker at rt. 60 μL of Kinase Detection Solution was then added to each well of 96-well plate containing 60 μL of the solution to convert ADP to ATP and to allow the newly synthesized ATP to be measured using a luciferase/luciferin reaction (ratio of kinase reaction volume to ADP Glo™ Reagent volume to Kinase Detection Solution volume was maintained at 1:1:2). The plate was incubated for 40 minutes on a shaker at rt, protected from light. Luminescence was measured in the plate reader, wherein the luminescent signal is proportional to the ADP concentration produced and thus correlates with kinase activity. After data normalization to controls (complete reaction mix and no-substrate control) and transforming X values (test compound concentrations) using: X=log(X), IC50 values were determined, using the GraphPad Prism 6.0 [log(agonist) vs. normalized response—Variable slope].

T2 sequence (Q9Y463 whole entry): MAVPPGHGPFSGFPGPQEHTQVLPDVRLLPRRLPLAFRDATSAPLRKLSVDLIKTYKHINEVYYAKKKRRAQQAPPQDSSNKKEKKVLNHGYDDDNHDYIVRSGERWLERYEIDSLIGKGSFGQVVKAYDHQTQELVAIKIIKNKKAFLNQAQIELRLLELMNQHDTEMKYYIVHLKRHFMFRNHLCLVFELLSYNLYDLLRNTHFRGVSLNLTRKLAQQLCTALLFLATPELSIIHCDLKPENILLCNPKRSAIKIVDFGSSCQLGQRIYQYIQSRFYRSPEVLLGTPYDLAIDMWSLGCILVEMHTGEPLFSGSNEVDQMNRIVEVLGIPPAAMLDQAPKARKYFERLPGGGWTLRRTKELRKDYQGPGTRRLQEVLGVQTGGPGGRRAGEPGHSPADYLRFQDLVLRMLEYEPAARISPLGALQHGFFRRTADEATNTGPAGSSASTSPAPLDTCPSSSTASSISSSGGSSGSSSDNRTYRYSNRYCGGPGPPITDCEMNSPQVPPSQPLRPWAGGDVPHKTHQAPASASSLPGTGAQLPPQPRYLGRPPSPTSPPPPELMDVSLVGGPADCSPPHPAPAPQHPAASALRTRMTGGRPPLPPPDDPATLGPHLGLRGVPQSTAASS

As a reminder, the IC50 is the midpoint of a concentration-inhibition curve. For `C=CCN(C)Cc1cnc2[nH]cc(-c3cc(F)c4nccc(-c5cccnc5)c4c3)c2c1` [Example 52, ({3-[8-Fluoro-4-(pyridin-3-yl)quinolin-6-yl]-1H-pyrrolo[2,3-b]pyridin-5-yl}methyl)(methyl)(prop-2-en-1-yl)amine], the IC50 against DYRK1A was 10 to 100 nM; at DYRK1B, under 10 nM.

Take `CC(=O)N1CCC(Nc2c(N)cnc3ccc(-c4c[nH]c5ncccc45)cc23)CC1` [Example 66, 1-{4-[(3-Amino-6-{1H-pyrrolo[2,3-b]pyridin-3-yl}quinolin-4-yl)amino]piperidin-1-yl}ethan-1-one]: the IC50 against DYRK1A and on DYRK1B was under 10 nM in each case.

In the case of `O=C(NCc1ccccc1)c1cnc2[nH]cc(-c3cc(F)c4nccc(-c5cccnc5)c4c3)c2c1` [Example 36, N-Benzyl-3-[8-fluoro-4-(pyridin-3-yl)quinolin-6-yl]-1H-pyrrolo[2,3-b]pyridine-5-carboxamide], the IC50 was 10 to 100 nM against DYRK1A and under 10 nM at DYRK1B.

On to `CNC(=O)c1cnc2[nH]cc(-c3cc(F)c4nccc(CCc5ccccc5)c4c3)c2c1` [Example 40, 3-[8-Fluoro-4-(2-phenylethyl)quinolin-6-yl]-N-methyl-1H-pyrrolo[2,3-b]pyridine-5-carboxamide], for which the IC50 at DYRK1A and at DYRK1B was under 10 nM in each case.

Consider `O=C(NCc1ccccc1)c1cnc2[nH]cc(-c3cc(Cl)c4ncccc4c3)c2c1` [Example 32, N-Benzyl-3-(8-chloroquinolin-6-yl)-1H-pyrrolo[2,3-b]pyridine-5-carboxamide], for which the results for the IC50 against DYRK1A and at DYRK1B were 10 to 100 nM and under 10 nM, respectively.

As for `c1ccc(-c2ccnc3ccc(-c4c[nH]c5ncccc45)cc23)cc1` [Example 8, 4-Phenyl-6-{1H-pyrrolo[2,3-b]pyridin-3-yl}quinoline], the 50% inhibitory concentration (IC50) at DYRK1A and on DYRK1B was under 10 nM each time.

In the case of `CNC(=O)c1cnc2[nH]cc(-c3cc(F)c4nccc(N5CCC[C@@H](N)C5)c4c3)c2c1` [Example 41, 3-{4-[(3R)-3-Aminopiperidin-1-yl]-8-fluoroquinolin-6-yl}-N-methyl-1H-pyrrolo[2,3-b]pyridine-5-carboxamide hydrochloride], the IC50 at DYRK1A and on DYRK1B was under 10 nM throughout.

As to `c1cnc2[nH]cc(-c3ccc4nccc(-c5ccncc5)c4c3)c2c1` [Example 7, 4-(Pyridin-4-yl)-6-{1H-pyrrolo[2,3-b]pyridin-3-yl}quinoline], the half-inhibitory concentration (IC50) at DYRK1A and at DYRK1B was under 10 nM in each case.

Regarding `c1cncc(-c2ccnc3ccc(-c4c[nH]c5ncccc45)cc23)c1` [Example 6, 4-(Pyridin-3-yl)-6-{1H-pyrrolo[2,3-b]pyridin-3-yl}quinoline], the IC50 against DYRK1A and at DYRK1B was under 10 nM throughout.

For the compound `CNC(=O)c1cnc2[nH]cc(-c3ccc4nccc(Cl)c4c3)c2c1` [Example 24, 3-(4-Chloroquinolin-6-yl)-N-methyl-1H-pyrrolo[2,3-b]pyridine-5-carboxamide], the concentration for half-maximal inhibition (IC50) at DYRK1A and at DYRK1B was under 10 nM in each case.

Consider `CNC(=O)c1cnc2[nH]cc(-c3cc(F)c4nccc(N5CCC[C@H](N)C5)c4c3)c2c1` [Example 43, 3-{4-[(3S)-3-Aminopiperidin-1-yl]-8-fluoroquinolin-6-yl}-N-methyl-1H-pyrrolo[2,3-b]pyridine-5-carboxamide hydrochloride], for which the half-inhibitory concentration (IC50) against DYRK1A and on DYRK1B was under 10 nM in each case.

`C=CCN(C)C(=O)c1cnc2[nH]cc(-c3cc(Cl)c4ncccc4c3)c2c1` [Example 28, 3-(8-Chloroquinolin-6-yl)-N-methyl-N-(prop-2-en-1-yl)-1H-pyrrolo[2,3-b]pyridine-5-carboxamide]: the IC50 on DYRK1A is 10 to 100 nM; at DYRK1B it was under 10 nM.

For the compound `CNC(=O)c1cnc2[nH]cc(-c3ccc4ncc(NC(C)=O)c(N5CCOCC5)c4c3)c2c1` [Example 57, 3-[3-Acetamido-4-(morpholin-4-yl)quinolin-6-yl]-N-methyl-1H-pyrrolo[2,3-b]pyridine-5-carboxamide], the half-maximal inhibitory concentration (IC50) against DYRK1A and at DYRK1B was under 10 nM throughout.

As to `C=CCN(C)C(=O)c1cnc2[nH]cc(-c3cc(F)c4nccc(-c5cccnc5)c4c3)c2c1` [Example 38, 3-[8-Fluoro-4-(pyridin-3-yl)quinolin-6-yl]-N-methyl-N-(prop-2-en-1-yl)-1H-pyrrolo[2,3-b]pyridine-5-carboxamide], the concentration for half-maximal inhibition (IC50) is 10 to 100 nM against DYRK1A and under 10 nM on DYRK1B.

Turning to `Cc1cc(-c2c[nH]c3ncccc23)cc2c(-c3ccccc3)ccnc12` [Example 17, 8-Methyl-4-phenyl-6-{1H-pyrrolo[2,3-b]pyridin-3-yl}quinoline], the IC50 on DYRK1A and on DYRK1B was over 100 nM each time.

As for `FC(F)(F)Oc1cc(-c2c[nH]c3ncccc23)cc2cccnc12` [Example 14, 6-{1H-Pyrrolo[2,3-b]pyridin-3-yl}-8-(trifluoromethoxy)quinoline], the values for the IC50 against DYRK1A and at DYRK1B were over 100 nM and 10 to 100 nM, respectively.

In the case of `N[C@H]1CC[C@H](Nc2c(NCC3CCOCC3)cnc3ccc(-c4c[nH]c5ncc(C(=O)NCc6cccnc6)cc45)cc23)CC1` [Example 60, 3-{4-[(4-Aminocyclohexyl)amino]-3-[(oxan-4-ylmethyl)amino]quinolin-6-yl}-N-(pyridin-3-ylmethyl)-1H-pyrrolo[2,3-b]pyridine-5-carboxamide hydrochloride], the half-maximal inhibitory concentration (IC50) on DYRK1A is 10 to 100 nM; on DYRK1B, under 10 nM.
